# Experimental data from patent publication US20220079966A1, “HYALURONAN SYNTHESIS INHIBITION FOR TREATING AUTOIMMUNE, INFLAMMATORY, FIBROTIC, OR PROLIFERATIVE DISEASES OR DISORDERS” (The Board of Trustees of the Leland Stanford Junior …, priority 2018, published 2022).
# Key:
# [1] = Conversion of 4-MUG into fluorescent 4-MU in medium (fluorescence plate reader); type: in vitro ADME; conditions: PBS with 10% FCS, monitored up to 72 hours
# Experimental: Given the established activity of 4-MU leading to inhibition of HA synthesis, it seemed possible that the bioactivity of 4-MUG could be attributed to its hydrolysis into 4-MU. It is generally known that 4-MU is fluorescent while 4-MUG is not. In particular, 4-MU has an excitation wavelength of 380 nm and an emission wavelength of 454 nm in water.
# Fluorescent values of 4-MUG were normalized to the 4-MU fluorescence. Referring to FIG. 2 B, 4-MU or 4-MUG was added to PBS with 10% FCS and the increase of fluorescence signal using a fluorescence plate reader was monitored at intervals up to 72 hours.
# [2] = Chemical stability of 4-MUG in fasted state simulated gastric fluid; type: physicochemical; conditions: 100 μM, FaSSGF pH 1.6, 37° C., 0-120 minutes
# Experimental: To determine the chemical stability of 4-MUG, its half-life (t1/2) was evaluated. 4-MUG was tested at a concentration of 100 μM. The internal standard (IS) was prepared at 50 ng/mL with tolbutamide in DMSO and a buffer solution was prepared of fasted state simulated gastric fluid (FaSSGF) at pH 1.6. The buffer was pre-warmed at 37° C. for 15 minutes, subsequently 4-MUG was added, and the solution was vortexed. Next, 30 μL of this reaction mixture was removed at each time point for analysis. The time points included 0 minutes, 15 minutes, 30 minutes, 60 minutes and 120 minutes. The reaction was stopped at the end of the experiment by adding IS solution. The samples were centrifuged at 4,000 rpm for 15 minutes at 4° C. 100 μL of the supernatant was mixed with distilled water for further liquid chromatography with tandem mass spectrometry (LC-MS/MS) analysis. The mass spectrometry detection was performed using a SCIEX® API 4500 Qtrap® (Sciex, Redwood City, Calif.). Each compound was analyzed by reverse phase high performance liquid chromatography (HPLC). The parameters calculated were the ratio of 4-MUG, the percent of 4-MUG remaining versus time, and the estimation of 4-MUG's t1/2.
# [3] = Water solubility (statement); type: physicochemical
# [4] = HPLC of 4-MU and metabolites in serum of mice fed 4-MU chow for two weeks; type: in vivo; conditions: mice fed 4-MU for two weeks
# Text: As a result of efficient glucuronidation of 4-MU in the liver and intestines by multiple UDP-glucuronosyltransferases (UGTs), the predominant form present systemically in mice on oral 4-MU chow is 4-MUG, as has been reported previously (Mulder G J, et al., Biochem Pharmacol. 1985; 34(8):1325-1329). For example, FIG. 1A illustrates molecular structures for 4-MU and its primary metabolites, 4-MUG and 4-MUS. […] N=3 animals per group. […] N=3 animals per group.
# [5] = set-up: species or system mice; conditions: mouse, in vivo
# Experimental: The 4-MU (Alfa Aesar) was pressed into mouse chow (TestDiet, St. Louis, Mo.) and irradiated before shipment, as previously described (Nagy N., et al., Circulation. 2010; 122(22):2313-2322). This chow formulation delivers 250 mg/mouse/day, yielding a serum drug concentration of 640.3±17.2 nmol/L in mice, as measured by HPLC-MS. 4-MUG (ChemImpex, Wood Dale, Ill.) was distributed in the drinking water at a concentration of 2 mg/ml, delivering 10 mg/mouse/day, yielding a serum drug concentration of 357.1±72.6 ng/mL in mice, as measured by LC-MS/MS. Mice were initiated on 4-MU and 4-MUG at five, eight or twelve weeks of age, unless otherwise noted, and were maintained on this diet until they were euthanized, unless otherwise noted. For analysis of Foxp3+ regulatory T-cell numbers in naïve mice, mice were treated daily with 0.5 mg of 4-MU or 1.0 mg 4-MUG in 200 μl 0.08% carboxymethylcellulose in saline by intra-peritoneal injection.
# 4-methylumbelliferone-13C4 (Toronto Research Chemicals, Ontario, Canada) was used as the internal standard (IS) for 4-MU and 7-hydroxycoumarin β-D-glucuronide (Toronto Research Chemicals, Ontario, Canada) as the IS for 4-MUG. The neat stock solutions of 4-MU and 4-MUG were mixed and diluted in 50% methanol to prepare the spiking solutions ranging from 1 ng/mL to 5000 ng/mL for each compound. […]
SMILES,time from which fluorescence (conversion to 4-MU) could be detected [1],chemical stability [2],water solubility [3],median serum concentration of 4-MUG relative to parent compound 4-MU [4],"amount of 4-MUG in fat and muscle, 4-MU treatment compared to 4-MUG treatment [5]"
"Cc1cc(=O)oc2cc(O[C@@H]3O[C@H](C(=O)O)[C@@H](O)[C@H](O)[C@H]3O)ccc12 [4-MUG, 4-methylumbelliferone-glucuronide]",around 30 hours,stable,water-soluble,about 150 fold,–
"Cc1cc(=O)oc2cc(O)ccc12 [4-MU, 4-methylumbelliferone]",–,–,–,–,significantly higher amount of 4-MUG
